Results as given in patent US4666931A, “Benzofuran derivatives useful in treating diabetic complications” (Kaken Pharmaceutical Co., Ltd., priority 1984, dated 1987).
Read-outs that look alike come from different tables or passages of the source.

Columns and labels:
cyclooxygenase = experiment: Cyclooxygenase inhibition: malondialdehyde production from arachidonic acid, 9000 G supernatant of lung homogenate from guinea pig; assay type: biochemical; conditions: guinea pig lung 9000 G supernatant, compared with aspirin
Protocol: Lung from guinea pig was washed with physiological saline and homogenized in 0.1M Tris-hydrochloric acid buffer to prepare a supernatant by cooled centrifugation (9000 G).
The inhibiting activity against cyclooxygenase was measured by using the 9000 G supernatant as a source of cyclooxygenase in the presence of 1 mM epinephiline.

[1] = target: T1, aldose reductase from rat lens (Rattus norvegicus, UniProt P07943); experiment: Aldose reductase inhibiting activity; assay type: biochemical; conditions: DL-glyceraldehyde substrate, Table 2, read-out: IC50 (50% inhibition concentration in M)
T1 construct: the supernatant was prepared as the crude enzyme solution; from tissue; host or cells: lens of male Wistar rats, 10,000 g supernatant of homogenate (crude enzyme)
Protocol: Wistar male rats were sacrificed by decapitation and the lenses were taken out to be homogenized with a 0.1M phosphate buffer [pH 6.8, containing 1 mM of mercaptoethanol and 1 mM of nicotinamide-adenine dinucleotide phosphate (NADP)]. The homogenate was then centrifuged at 10,000 g for 15 minutes and the supernatant was prepared as the crude enzyme solution.

[2] = tested on: aggregation of the washed rabbit platelet by thrombin; experiment: Platelet aggregation inhibiting activity (washed rabbit platelet, thrombin); assay type: cell-based; conditions: for IC50: Oryctolagus cuniculus, Platelet; for platelet aggregation inhibiting activity relative to Persantin: compared with Persantin (dipyridamole)
Protocol: Blood samples were collected from the auricular blood vessel of rabbits (white local breed), and washed platelets were prepared therefrom by the method of Baenziger et al. (N. L. Baenziger and P. W. Majerus, Methods Enzymol., 31, 149 to 155 (1974). The platelets were suspended in a 15 mM Tris-hydrochloric acid buffer with a final concentration of 6×10^8 cells/ml (Tris: tris(hydroxymethyl)aminomethane). Each test compound of the compound Nos. 5, 8, 9, 11, 23, 29, 30 and 33 and Persantin® was added thereto and incubation was carried out at 37° C. for 2 minutes. Then the platelets were stimulated by addition of thrombin (0.2 unit/ml of final concentration; made by Mochida Pharmaceutical Co.) and the aggregation inhibiting activity was estimated by the observation of the aggregation reaction using an aggregometer (made by Briston Co.).
The results are shown in Table 3 in terms of IC50 (50% inhibiton concentration in M).

mice = experiment: Acute toxicity test in mice (oral); conditions: mice, oral; for death up to the dose of 3 g/kg body weight: up to 3 g/kg
Protocol: (§1) Acute toxicity test in mice was carried out on the benzofuran derivatives of the compound Nos. 3, 5, 9, 21, 23, 26, 29 and 34.

[3] = Acute toxicity test in mice (oral); conditions: mouse, in vivo, po
Protocol: as §1

[4] = tested on: production of malondialdehyde from arachidonic acid by rabbit platelets; experiment: Arachidonic acid metabolism inhibiting activity: production of malondialdehyde from arachidonic acid by rabbit platelets; assay type: cell-based; conditions: Oryctolagus cuniculus, Platelet, arachidonic acid 0.2 mM, read-out: concentration showing 50% inhibition against the production of malondialdehyde from arachidonic acid
Protocol: Washed rabbit platelets prepared as in the platelet aggregation inhibiting activity test were suspended in 15 mM Tris-hydrochloric acid buffer with a final concentration of 1×10^8 cell/ml, to which each test compound of the compound Nos. 8, 13, 14, 19, 20, 23, 29, 30 and 33 were added and the resultant was preincubated at 37° C. for five minutes. Then arachidonic acid (a final concentration: 0.2 mM, made by Sigma Chemical Co.) was added thereto and the mixture was preincubated for 1 minute. An amount of the produced malondialdehyde was measured according to the thiobarbiturates method (Ed. Aoki and Shibata, Ketsuekigaku Kenkyukensaho, P 441 to 447).

[5] = range for nine compounds, read-out: concentration showing 50% inhibition against the aggregation of the washed rabbit platelet by thrombin
[6] = washed rabbit platelets, thrombin 0.2 unit/ml, 37° C., Table 3, read-out: IC50 (50% inhibition concentration in M)

| Compound | inhibition against malondialdehyde production relative to aspirin (cyclooxygenase) | IC50 [1] [µM] | IC50 [2, 5] [µM] | IC50 [2, 6] [µM] | platelet aggregation inhibiting activity relative to Persantin [2] | death up to 2 g/kg body weight (mice) | LD50 at 336 h [3] [mg/kg] | IC50 [4] [µM] | death up to the dose of 3 g/kg body weight (mice) |
| --- | --- | --- | --- | --- | --- | --- | --- | --- | --- |
| CC(=O)c1cc2c(S(=O)(=O)NCC(=O)O)ccc(OCc3ccc([N+](=O)[O-])cc3)c2o1 [Compound 23, 2-acetyl-4-(N-carboxymethylsulfamoyl)-7-p-nitrobenzyloxybenzofuran] | equivalent to or more than | 0.05 | 20 to 200 | 80 | equivalent to or more than | no death | > 2000 | 10 to 100 | – |
| CCc1oc2ccc([N+](=O)[O-])cc2c1S(=O)(=O)NCC(=O)O [Compound 21, 2-ethyl-3-(N-carboxymethylsulfamoyl)-5-nitrobenzofuran] | – | 0.05 | – | – | – | – | > 3000 | – | no death |
| CC(=O)c1cc2c(S(=O)(=O)N(CC(=O)O)Cc3ccc(Cl)cc3)ccc(OCc3ccc(Cl)cc3)c2o1 [Compound 34, 2-acetyl-4-(N-p-chlorobenzyl-N-carboxymethylsulfamoyl)-7-p-chlorobenzyloxybenzofuran] | – | 0.8 | – | – | – | no death | > 2000 | – | – |
| CCCOc1ccc(S(=O)(=O)NCC(=O)O)c2cc(C(C)=O)oc12 [Compound 3, 2-acetyl-4-(N-carboxymethylsulfamoyl)-7-n-propoxybenzofuran] | – | 0.06 | – | – | – | – | > 3000 | – | no death |
| CCCCOc1ccc(S(=O)(=O)N(C)CC(=O)O)c2cc(C(C)=O)oc12 [Compound 9, 2-acetyl-4-(N-methyl-N-carboxymethylsulfamoyl)-7-n-butoxybenzofuran] | – | 1 | 20 to 200 | 600 | equivalent to or more than | – | > 3000 | – | no death |
| CC(=O)COc1ccc(S(=O)(=O)NCC(=O)O)c2cc(C(C)=O)oc12 [Compound 26, 2-acetyl-4-(N-carboxymethylsulfamoyl)-7-acetonyloxybenzofuran] | – | 0.2 | – | – | – | no death | > 2000 | – | – |
| CCCCCOc1ccc(S(=O)(=O)NCC(=O)O)c2cc(C(C)=O)oc12 [Compound 5, 2-acetyl-4-(N-carboxymethylsulfamoyl)-7-n-pentyloxybenzofuran] | – | 0.05 | 20 to 200 | – | equivalent to or more than | – | > 3000 | – | no death |
| CC(=O)c1cc2c(S(=O)(=O)NCC(=O)O)ccc(OCc3ccccc3)c2o1 [Compound 29, 2-acetyl-4-(N-carboxymethylsulfamoyl)-7-benzyloxybenzofuran] | equivalent to or more than | 0.05 | 20 to 200 | 35 | equivalent to or more than | no death | > 2000 | 10 to 100 | – |
